According to US10399966B2, “Compounds for treatment of trypanosomes and neurological pathogens and uses thereof” (The University of North Carolina at Chapel Hill, priority 2016, dated 2019):
Read-outs that look alike come from different tables or passages of the source.

Assays:
T. b. brucei = assay: In vitro antitrypanosomal activity against T. brucei (growth inhibition); format: cell-based, Trypanosoma brucei; conditions: Trypanosoma brucei; for EC90: read-out: T. brucei EC90
Summary of the method: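 Dose-response EC50 against T. brucei parasites with 0.4% DMSO final, 48 h at 37 °C; parasite density quantified by ATP luminescence (CellTiter-Glo).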

[1] = Metabolic stability in mouse liver microsomes; format: in vitro ADME; conditions: Table 12
Protocol: (§1) Metabolic stability was evaluated using liver microsomes derived from mouse and human sources. Microsomal incubations were carried out according to a protocol described previously (Wang et al., Antimicrob. Agents Chemother. 54:2507 (2010)) with modifications. Briefly, substrate stock solutions were prepared in DMSO and DMSO content was kept at 0.5% (v/v) in final incubations. Incubation mixtures ([…]), liver microsomes (0.5 mg/mL) from mouse (pool of 1000, CD-1 male mouse) or human (pool of 50, mixed gender) (XenoTech LLC, Lenexa, Kans.) in a phosphate buffer (100 mM, pH 7.4) containing 3.3 mM MgCl2. After a 5-minute pre-equilibration period at 37° C., reactions (in triplicate) were initiated by adding the NADPH cofactor (1 mM). For NADPH-independent reactions, the cofactor was replaced with water. Aliquots (10 μl) of the reaction mixtures were removed at 0, 15, 30, and 60 minutes and individually mixed with 200 μL of ice-cold acetonitrile containing internal standard. The mixtures were vortex-mixed, and precipitated protein was removed by centrifugation at 2,250×g for 15 min. The supernatant fractions were dried using a 96-well microplate evaporator (Apricot Designs Inc., Covina, Calif.) under N2 at 50° C. and reconstituted with 100 μL 50% methanol containing 0.1% trifluoroacetic acid before UPLC-MS/MS analysis. In vitro half-life (t1/2) was obtained by analyzing the substrate concentration vs. incubation time curve using the one-phase exponential decay model (GraphPad Prism® 5.0, San Diego, Calif.).

[2] = Metabolic stability in human liver microsomes; format: in vitro ADME; conditions: Table 12; for Human microsomes, percentage of compound remaining: after 60 min (where t1/2 > 60 min); for half-life at 1.5 μM: both sexes, human, liver microsomes, pH 7.4, read-out: Human microsomes t1/2; for half-life at 1.5 μM / Human microsomes t1/2: 37° C., NADPH (1 mM), microsomes 0.5 mg/mL, test compounds 1.5 μM
Protocol: as §1

Trypanosoma cruzi = assay: Efficacy against T. cruzi in vitro; format: cell-based; conditions: Trypanosoma cruzi, Table 10; for EC50: read-out: T.cruzi EC50; for EC90: read-out: T.cruzi EC90
[3] = Distribution between mouse plasma and brain (brain penetration, ip); format: in vivo; conditions: for Brain/plasma ratio / [compound]Brain / [compound]Plasma: Table 14, mice, single ip dose 5 mg/kg, one hour post-dose; for [compound]Brain / [compound]Plasma: ± SEM of 3 mice (compound 3: 6 mice); for Kp at 1 h / concentration at 1 h: mouse, intraperitoneal, 5 mg/kg; for Kp at 1 h: brain and plasma, read-out: Average brain/plasma ratio
Summary of the method: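 Mice (n=3) received a single 5 mg/kg ip dose in 7% Tween 80, 3% ethanol, 5% DMSO, 0.9% saline and were sacrificed 1 h post-dose. Plasma and acetonitrile brain homogenates analysed by LC/MS/MS; brain concentration corrected for 2.5% vasculature volume, assuming 1 g = 1 mL.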

human hepatocytes HepG2 = assay: Cytotoxicity against HepG2 cells; conditions: for EC50: Homo sapiens, HepG2, read-out: HepG2 EC50; for EC90: read-out: HepG2 EC90, concentration required to inhibit growth by 90%, human hepatocytes
[4] = test system: human lymphocytes CRL-8155; assay: Cytotoxicity against CRL-8155 cells; conditions: human lymphoblasts; for EC50: read-out: CRL-8155 EC50, concentration required to inhibit growth by 50%; for EC90: read-out: CRL-8155 EC90, concentration required to inhibit growth by 90%
Protocol: The selectivity of each compound for the parasite over each of the two cell lines was calculated.

[5] = Mouse oral pharmacokinetics; format: in vivo; conditions: for percent of the Cmax remaining: mouse oral 50 mg/kg
Protocol: […] Experiments were performed with groups of three mice per compound. Plasma was separated and extracted with acetonitrile for measurements of compound concentrations by liquid chromatography/tandem mass spectrometry.

[6] = Table 12, read-out: T. b. brucei EC50
[7] = Table 9, read-out: T. brucei EC50
[8] = 37° C., NADPH (1 mM), microsomes 0.5 mg/mL, test compounds 1.5 μM
[9] = brain, Table 7, groups of 3 mice, read-out: Average [compound] brain
[10] = plasma, Table 7, groups of 3 mice, read-out: Average [compound] plasma
[11] = Table 7, read-out: T. brucei EC50
[12] = Table 11, read-out: T. b. brucei EC50

O=C(Nc1ccc2oc(-c3ccccc3)nc2c1)N1CCCCC1 [Compound 16, 2-Phenyl-5-N-piperidylamidobenzoxazole]
melting point: 207 to 209 °C
EC50 (T. b. brucei; [6]): 2800 nM
EC50 (T. b. brucei; [7]): 2800 nM
EC90 (T. b. brucei; Table 9): 9300 nM
Mouse microsomes t1/2 [1, 8]: 11 min
Human microsomes, percentage of compound remaining [2]: 77%
half-life at 1.5 μM [2]: > 60 min

O=C(Nc1ccc2sc(-c3ccccc3)nc2c1)N1CCCC1 [Compound 7, 2-Phenyl-5-(N-pyrrolidylamido)benzothiazole]
melting point: 210 to 211 °C
EC50 (Trypanosoma cruzi): 564 nM
EC90 (Trypanosoma cruzi): 861 nM
Brain/plasma ratio [3]: 1.24 ± 0.157
[compound]Brain [3]: 4.24 ± 0.698 µM
[compound]Plasma [3]: 3.403 ± 0.328 µM
Kp at 1 h ([3]; Table 7, groups of 3 mice): 1.24 ± 0.272
concentration at 1 h [3, 9]: 4.24 ± 1.21 µM
concentration at 1 h [3, 10]: 3.4 ± 0.569 µM
EC50 (human hepatocytes HepG2): > 50000 nM
EC90 (human hepatocytes HepG2): > 50000 nM
EC50 (T. b. brucei; [11]): 325 nM
EC50 (T. b. brucei; [12]): 325 nM
EC50 (T. b. brucei; [6]): 325 nM
EC50 (T. b. brucei; [7]): 325 nM
EC90 (T. b. brucei; Table 9): 817 nM
Mouse microsomes t1/2 [1, 8]: 18 min
EC50 [4]: > 50000 nM
EC90 [4]: > 50000 nM
Human microsomes t1/2 [2]: 30 min

O=C(Nc1ccc2sc(-c3cccc(F)c3)nc2c1)N1CCCCC1 [Compound 29, 2-(3-Fluorophenyl)-5-(N-piperidylamido)benzothiazole]
melting point: 216 to 217 °C
EC50 (Trypanosoma cruzi): 320 nM
EC90 (Trypanosoma cruzi): 503 nM
EC50 (human hepatocytes HepG2): > 50000 nM
EC90 (human hepatocytes HepG2): > 50000 nM
EC50 (T. b. brucei; [12]): 174 nM
EC50 (T. b. brucei; [6]): 174 nM
EC50 (T. b. brucei; [7]): 174 nM
EC90 (T. b. brucei; Table 9): 602 nM
Mouse microsomes t1/2 [1, 8]: 11 min
EC50 [4]: > 50000 nM
EC90 [4]: > 50000 nM
Human microsomes t1/2 [2]: 8.9 min

O=C(Nc1ccc2sc(-c3ccc(F)c(F)c3)nc2c1)N1C[C@@H](F)[C@H](F)C1 [Compound 35, (3R,4R)-2-(3,4-Difluorophenyl)-5-(3,4-difluoro-N-pyrrolidylamido)benzothiazole]
melting point: 217 to 218 °C
EC50 (Trypanosoma cruzi): 562 nM
EC90 (Trypanosoma cruzi): 652 nM
Brain/plasma ratio [3]: 7.71 ± 1.63
[compound]Brain [3]: 16.2 ± 2.88 µM
[compound]Plasma [3]: 2.19 ± 0.424 µM
Kp at 1 h ([3]; Table 8, groups of 3 mice): 7.71 ± 1.63
concentration at 1 h ([3]; brain, Table 8, groups of 3 mice (compound 3: ± SEM of 6 mice), read-out: Average [compound] brain): 16.2 ± 2.88 µM
concentration at 1 h ([3]; plasma, Table 8, groups of 3 mice (compound 3: ± SEM of 6 mice), read-out: Average [compound] plasma): 2.19 ± 0.424 µM
EC50 (human hepatocytes HepG2): > 50000 nM
EC90 (human hepatocytes HepG2): > 50000 nM
EC50 (T. b. brucei; Table 8, read-out: T. brucei EC50): 114 nM
EC50 (T. b. brucei; [12]): 114 nM
EC50 (T. b. brucei; [6]): 114 nM
EC50 (T. b. brucei; [7]): 114 nM
EC90 (T. b. brucei; Table 9): 747 nM
Mouse microsomes, percentage of compound remaining ([1]; after 60 min (where t1/2 > 60 min)): 67%
half-life at 1.5 μM ([1]; male, CD-1, mouse, liver microsomes, pH 7.4, 37° C., NADPH (1 mM), microsomes 0.5 mg/mL, test compounds 1.5 μM, read-out: Mouse microsomes t1/2): > 60 min
EC50 [4]: 27100 nM
EC90 [4]: > 50000 nM
AUC0 min-∞ ([5]; Table 13, mice, single 50 mg/kg oral gavage, vehicle Tween 80 (7%), EtOH (3%), DMSO (5%) in 0.9% NaCl, ± SEM of 3 mice): 13515 ± 224.6 µM·min
Cmax ([5]; Table 13, mice, single 50 mg/kg oral gavage, vehicle Tween 80 (7%), EtOH (3%), DMSO (5%) in 0.9% NaCl, ± SEM of 3 mice, read-out: Cmax): 11 ± 0.58 µM
percent of the Cmax remaining ([5]; 24 h time point): 34%
percent of the Cmax remaining ([5]; 32 h time point): > 17%
Human microsomes, percentage of compound remaining [2]: 96%
half-life at 1.5 μM [2]: > 60 min

O=C(Nc1ccc2sc(-c3cccc(F)c3)nc2c1)N1CCCC1 [Compound 6, 2-(3-Fluorophenyl)-5-(N-pyrrolidylamido)benzothiazole]
melting point: 232 to 233 °C
EC50 (Trypanosoma cruzi): 631 nM
EC90 (Trypanosoma cruzi): 697 nM
Brain/plasma ratio [3]: 1.01 ± 0.037
[compound]Brain [3]: 2.28 ± 0.532 µM
[compound]Plasma [3]: 2.22 ± 0.461 µM
Kp at 1 h ([3]; Table 7, groups of 3 mice): 1.01 ± 0.064
concentration at 1 h [3, 9]: 2.28 ± 0.92 µM
concentration at 1 h [3, 10]: 2.22 ± 0.798 µM
EC50 (human hepatocytes HepG2): > 50000 nM
EC90 (human hepatocytes HepG2): > 50000 nM
EC50 (T. b. brucei; [11]): 158 nM
EC50 (T. b. brucei; [12]): 158 nM
EC50 (T. b. brucei; [6]): 158 nM
EC50 (T. b. brucei; [7]): 158 nM
EC90 (T. b. brucei; Table 9): 391 nM
Mouse microsomes t1/2 [1, 8]: 12 min
EC50 [4]: > 50000 nM
EC90 [4]: > 50000 nM
Human microsomes t1/2 [2]: 37 min

O=C(Nc1ccc2sc(-c3ccccc3)nc2c1)N1CCCCC1 [Compound 23, 2-Phenyl-5-(N-piperidylamido)benzothiazole]
melting point: 230 to 232 °C
EC50 (Trypanosoma cruzi): 826 nM
EC90 (Trypanosoma cruzi): 1070 nM
EC50 (human hepatocytes HepG2): > 50000 nM
EC90 (human hepatocytes HepG2): > 50000 nM
EC50 (T. b. brucei; [12]): 366 nM
EC50 (T. b. brucei; [6]): 366 nM
EC50 (T. b. brucei; [7]): 366 nM
EC90 (T. b. brucei; Table 9): 809 nM
Mouse microsomes t1/2 [1, 8]: 17 min
EC50 [4]: > 50000 nM
EC90 [4]: > 50000 nM
Human microsomes, percentage of compound remaining [2]: 62%
half-life at 1.5 μM [2]: > 60 min

O=C(Nc1ccc2sc(-c3ccccc3)nc2c1)c1ccccc1 [Compound 17, 5-Benzamido-2-phenylbenzothiazole]
EC50 (T. b. brucei; [6]): 2380 nM
EC50 (T. b. brucei; [7]): 2380 nM
EC90 (T. b. brucei; Table 9): 7740 nM
Mouse microsomes t1/2 [1, 8]: 50 min
Human microsomes, percentage of compound remaining [2]: 53%
half-life at 1.5 μM [2]: > 60 min
